# Measured values reported in PMC10999558, “Analyzing resistome in soil and Human gut: a study on the characterization and risk evaluation of antimicrobial peptide resistance” (Frontiers in Microbiology, 2024).
# Legend:
# Assay type in all cases: cell-based, Escherichia coli
# Conditions in all cases: MHB, 37°C, 24 h, triplicate
# E. coli DH5α = assay: MIC, broth microdilution, E. coli DH5α carrying pUC118 or resistance-conferring plasmids
# Protocol: (§1) Escherichia coli DH5α, E. coli BL21(DE3), and E. coli JM109 were utilized in this study.
# (§2) The MICs were determined using the broth microdilution method in 96-well microtiter plates ([Wiegand et al., 2008]). In brief, a 1:100 dilution of the mid-exponential phase bacterial culture (OD600 = 0.5), consisting of 5 μL (1 × 10^5 CFU/mL), was introduced into polypropylene 96-well plates. These plates contained a two-fold dilution series of AMP in a total volume of 100 μL MHB per well. The incubation of the plates occurred at 37°C in a humidity chamber. The MIC was identified as the lowest concentration that hindered visible bacterial growth after 24 h of incubation. Each experiment was conducted in triplicate.
# (§3) Following validation, the colonies displaying resistance underwent additional testing via MIC assessments for the remaining four AMPs that were not employed during the selection process. This experimental procedure was carried out in triplicate.
# E. coli JM109 = assay: MIC, broth microdilution, retransformed E. coli JM109
# Protocol: as §1, §2
# (§4) Before washing down the colonies, we randomly selected two clones from each plate containing distinct AMP. Colony PCRs were conducted using M13 primer pairs to validate the presence of inserts and determine their sizes. The selected colonies were then subjected to sequencing. The specific details are provided in Supplementary Table S2. Following that, plasmids were isolated using the Plasmid Midiprep Kit (Zomanbio, ZP103) following the manufacturer’s guidelines. After the plasmids were successfully reintroduced into E. coli JM109 and E. coli BL 21(DE3), the MICs of the transformed strains against the AMP used for selection were tested. This testing process was carried out in triplicate.
# as §3
# E. coli BL21(DE3) = assay: MIC, broth microdilution, retransformed E. coli BL21(DE3)
# Protocol: as §1, §2, §4, §3
substance,measurement,setting,value
Polymyxin B [PB],MIC,E. coli DH5α; E. coli DH5α containing pUC118 plasmids,0.5 µg/mL
same,MIC,"E. coli DH5α; colony pUC118-DH5α (control, no insert)",0.5 µg/mL
same,MIC,E. coli DH5α; colony pUC118-FCST1-DH5α (feces insert 1 selected against colistin),0.5 µg/mL
same,MIC,E. coli DH5α; colony pUC118-FCST2-DH5α (feces insert 2 selected against colistin),1 µg/mL
same,MIC,E. coli DH5α; colony pUC118-FGQ1-DH5α (feces insert 1 selected against melittin),1 µg/mL
same,MIC,E. coli DH5α; colony pUC118-FGQ2-DH5α (feces insert 2 selected against melittin),1 µg/mL
same,MIC,E. coli DH5α; colony pUC118-FIB1-DH5α (feces insert 1 selected against iseganan),0.5 µg/mL
same,MIC,E. coli DH5α; colony pUC118-FIB2-DH5α (feces insert 2 selected against iseganan),1 µg/mL
same,MIC,E. coli DH5α; colony pUC118-FPB1-DH5α (feces insert 1 selected against polymyxin B),1 µg/mL
same,MIC,E. coli DH5α; colony pUC118-FPB2-DH5α (feces insert 2 selected against polymyxin B),1 µg/mL
same,MIC,E. coli DH5α; colony pUC118-FSA1-DH5α (feces insert 1 selected against cathelicidin-DM),0.5 µg/mL
same,MIC,E. coli DH5α; colony pUC118-FSA2-DH5α (feces insert 2 selected against cathelicidin-DM),1 µg/mL
same,MIC,E. coli DH5α; colony pUC118-SCST1-DH5α (soil insert 1 selected against colistin),0.5 µg/mL
same,MIC,E. coli DH5α; colony pUC118-SCST2-DH5α (soil insert 2 selected against colistin),0.5 µg/mL
same,MIC,E. coli DH5α; colony pUC118-SGQ1-DH5α (soil insert 1 selected against melittin),0.5 µg/mL
same,MIC,E. coli DH5α; colony pUC118-SGQ2-DH5α (soil insert 2 selected against melittin),0.5 µg/mL
same,MIC,E. coli DH5α; colony pUC118-SIB1-DH5α (soil insert 1 selected against iseganan),0.5 µg/mL
same,MIC,E. coli DH5α; colony pUC118-SIB2-DH5α (soil insert 2 selected against iseganan),0.5 µg/mL
same,MIC,E. coli DH5α; colony pUC118-SPB1-DH5α (soil insert 1 selected against polymyxin B),1 µg/mL
same,MIC,E. coli DH5α; colony pUC118-SPB2-DH5α (soil insert 2 selected against polymyxin B),2 µg/mL
same,MIC,E. coli DH5α; colony pUC118-SSA1-DH5α (soil insert 1 selected against cathelicidin-DM),0.5 µg/mL
same,MIC,E. coli DH5α; colony pUC118-SSA2-DH5α (soil insert 2 selected against cathelicidin-DM),0.5 µg/mL
same,MIC,E. coli JM109; colony pUC118-FCST1-JM109 (feces insert 1 selected against colistin),0.25 µg/mL
same,MIC,E. coli JM109; colony pUC118-FCST2-JM109 (feces insert 2 selected against colistin),1 µg/mL
same,MIC,E. coli JM109; colony pUC118-FGQ1-JM109 (feces insert 1 selected against melittin),0.5 µg/mL
same,MIC,E. coli JM109; colony pUC118-FGQ2-JM109 (feces insert 2 selected against melittin),0.5 µg/mL
same,MIC,E. coli JM109; colony pUC118-FIB1-JM109 (feces insert 1 selected against iseganan),0.25 µg/mL
same,MIC,E. coli JM109; colony pUC118-FIB2-JM109 (feces insert 2 selected against iseganan),0.5 µg/mL
same,MIC,E. coli JM109; colony pUC118-FPB1-JM109 (feces insert 1 selected against polymyxin B),0.5 µg/mL
same,MIC,E. coli JM109; colony pUC118-FPB2-JM109 (feces insert 2 selected against polymyxin B),0.5 µg/mL
same,MIC,E. coli JM109; colony pUC118-FSA1-JM109 (feces insert 1 selected against cathelicidin-DM),0.25 µg/mL
same,MIC,E. coli JM109; colony pUC118-FSA2-JM109 (feces insert 2 selected against cathelicidin-DM),0.5 µg/mL
same,MIC,"E. coli JM109; colony pUC118-JM109 (control, no insert)",0.25 µg/mL
same,MIC,E. coli JM109; colony pUC118-SCST1-JM109 (soil insert 1 selected against colistin),0.25 µg/mL
same,MIC,E. coli JM109; colony pUC118-SCST2-JM109 (soil insert 2 selected against colistin),0.25 µg/mL
same,MIC,E. coli JM109; colony pUC118-SGQ1-JM109 (soil insert 1 selected against melittin),0.25 µg/mL
same,MIC,E. coli JM109; colony pUC118-SGQ2-JM109 (soil insert 2 selected against melittin),0.25 µg/mL
same,MIC,E. coli JM109; colony pUC118-SIB1-JM109 (soil insert 1 selected against iseganan),0.25 µg/mL
same,MIC,E. coli JM109; colony pUC118-SIB2-JM109 (soil insert 2 selected against iseganan),0.25 µg/mL
same,MIC,E. coli JM109; colony pUC118-SPB1-JM109 (soil insert 1 selected against polymyxin B),0.5 µg/mL
same,MIC,E. coli JM109; colony pUC118-SPB2-JM109 (soil insert 2 selected against polymyxin B),0.5 µg/mL
same,MIC,E. coli JM109; colony pUC118-SSA1-JM109 (soil insert 1 selected against cathelicidin-DM),0.25 µg/mL
same,MIC,E. coli JM109; colony pUC118-SSA2-JM109 (soil insert 2 selected against cathelicidin-DM),0.25 µg/mL
same,MIC,"E. coli BL21(DE3); colony pUC118-BL21(DE3) (control, no insert)",1 µg/mL
same,MIC,E. coli BL21(DE3); colony pUC118-FCST1-BL21(DE3) (feces insert 1 selected against colistin),1 µg/mL
same,MIC,E. coli BL21(DE3); colony pUC118-FCST2-BL21(DE3) (feces insert 2 selected against colistin),2 µg/mL
same,MIC,E. coli BL21(DE3); colony pUC118-FGQ1-BL21(DE3) (feces insert 1 selected against melittin),2 µg/mL
same,MIC,E. coli BL21(DE3); colony pUC118-FGQ2- BL21(DE3) (feces insert 2 selected against melittin),2 µg/mL
same,MIC,E. coli BL21(DE3); colony pUC118-FIB1-BL21(DE3) (feces insert 1 selected against iseganan),1 µg/mL
same,MIC,E. coli BL21(DE3); colony pUC118-FIB2-BL21(DE3) (feces insert 2 selected against iseganan),2 µg/mL
same,MIC,E. coli BL21(DE3); colony pUC118-FPB1-BL21(DE3) (feces insert 1 selected against polymyxin B),4 µg/mL
same,MIC,E. coli BL21(DE3); colony pUC118-FPB2-BL21(DE3) (feces insert 2 selected against polymyxin B),2 µg/mL
same,MIC,E. coli BL21(DE3); colony pUC118-FSA1-BL21(DE3) (feces insert 1 selected against cathelicidin-DM),1 µg/mL
same,MIC,E. coli BL21(DE3); colony pUC118-FSA2-BL21(DE3) (feces insert 2 selected against cathelicidin-DM),4 µg/mL
same,MIC,E. coli BL21(DE3); colony pUC118-SCST1-BL21(DE3) (soil insert 1 selected against colistin),1 µg/mL
same,MIC,E. coli BL21(DE3); colony pUC118-SCST2-BL21(DE3) (soil insert 2 selected against colistin),1 µg/mL
same,MIC,E. coli BL21(DE3); colony pUC118-SGQ1-BL21(DE3) (soil insert 1 selected against melittin),1 µg/mL
same,MIC,E. coli BL21(DE3); colony pUC118-SGQ2-BL21(DE3) (soil insert 2 selected against melittin),1 µg/mL
same,MIC,E. coli BL21(DE3); colony pUC118-SIB1-BL21(DE3) (soil insert 1 selected against iseganan),1 µg/mL
same,MIC,E. coli BL21(DE3); colony pUC118-SIB2-BL21(DE3) (soil insert 2 selected against iseganan),1 µg/mL
same,MIC,E. coli BL21(DE3); colony pUC118-SPB1-BL21(DE3) (soil insert 1 selected against polymyxin B),2 µg/mL
same,MIC,E. coli BL21(DE3); colony pUC118-SPB2-BL21(DE3) (soil insert 2 selected against polymyxin B),2 µg/mL
same,MIC,E. coli BL21(DE3); colony pUC118-SSA1-BL21(DE3) (soil insert 1 selected against cathelicidin-DM),1 µg/mL
same,MIC,E. coli BL21(DE3); colony pUC118-SSA2-BL21(DE3) (soil insert 2 selected against cathelicidin-DM),1 µg/mL
